Experimental data from patent US8859621B2, “Pharmaceutical formulations of modafinil” (Cephalon, Inc., priority 2002, dated 2014).

What was measured:
[1] = system: children with moderate to severe ADHD; assay: Example 1: 4-week placebo-controlled study of modafinil in children with ADHD; type: in vivo, human; conditions: for ADHD symptoms, primary outcome measure (teacher rated ADHD Rating Scale-IV): vs placebo
Method: A group of 248 children (average age: 9 years, average weight: 35.5 kilograms) were studied to determine the effect of modafinil on ADHD.
After a 1 week washout period, children with moderate to severe ADHD received 4 weeks of treatment with placebo or modafinil in split morning/midday dosages of 100/200 mg, 200/100 mg, a single 300 mg dose, and 200/200 mg (400 mg total). Randomization called for equal distribution of the children by weight, except for the 200/200 mg dose group, which contained only children having a weight greater than or equal to 30 kg. The primary efficacy measure was the teacher rated ADHD Rating Scale-IV.

[2] = human blood plasma concentration curve of modafinil; type: in vivo
Method: FIG. 1 represents a human blood plasma concentration curve of modafinil after an initial dose of 100 mg of modafinil followed 4 hours later by a 200 mg dose of modafinil.
FIG. 2 represents a human blood plasma concentration curve of modafinil after an initial dose of 200 mg of modafinil followed 4 hours later by a 100 mg dose of modafinil.
FIG. 3 represents a human blood plasma concentration curve of modafinil after a single dose of 300 mg of modafinil.
FIG. 4 represents a human blood plasma concentration curve of modafinil after a single dose of 100 mg of modafinil.

ADHD patients = assay: Example 2: 2-week fixed-dose study of 340 mg and 425 mg in children with ADHD; type: in vivo, human; conditions: 340 mg (<30 kg) or 425 mg (>=30 kg) single dose per day, 2 weeks, baseline score 46.3
Method: Safety and efficacy of the fixed doses of 340-mg and 425-mg were evaluated following a 2-week dosing period (1-week of titration and 1-week at steady state). The 340-mg dose was administered to children weighing <30 kg, and the 425-mg dose was administered to children weighing ≧30 kg.
The 24 children enrolled in this study were predominately male (17M:7F) and predominately white (13W:9B:2Other). The average age (9.0 yrs), weight (32.9 kg) and height (133.7 cm) were similar to those seen in previous ADHD trials in children. The children <30 and ≧30 kg were approximately equaled divided. The average Attention Deficit Hyperactivity Disorder Rating Scale (ADHD-RS) total score at baseline was 46.3.

Compound: NC(=O)C[S+]([O-])C(c1ccccc1)c1ccccc1 (centres unmarked) [modafinil, 2-[(diphenylmethyl)sulfinyl]acetamide]
- adverse event profile ([1]; 400 mg of modafinil (200/200 mg) vs the other doses): higher adverse event profile than the other doses
- safety and tolerability ([1]; children, 4 weeks of treatment, 300 to 400 mg total daily): safe and generally well tolerated
- ADHD symptoms, primary outcome measure (teacher rated ADHD Rating Scale-IV) ([1]; children, single 300 mg once daily dose, 4 weeks of treatment): significantly improved ADHD symptoms
- ADHD symptoms, primary outcome measure (teacher rated ADHD Rating Scale-IV) ([1]; children, split morning/midday dose 200/100 mg, 4 weeks of treatment): significantly improved ADHD symptoms
- blood concentrations of modafinil, amount less than predicted ([2]; single dose of 300 mg vs extrapolation of 100 mg unit dose data, FIG. 3): 20-30%
- time post administration at which the blood level of modafinil begins to decrease ([2]; single dose of 300 mg, FIG. 3): about 2 hours
- time post administration at which the blood plasma concentration of modafinil begins to decrease ([2]; split dose 100 mg then 200 mg or 200 mg then 100 mg 4 hours later, FIGS. 1 and 2): about two
- improvement of ADHD-RS total score from baseline (ADHD patients): ~70%
